Reference: patent US12011506B2, “Combination and uses and treatments thereof” (priority 2017, dated 2024)
Read-outs that look alike come from different tables or passages of the source.

Assays:
[1] = Drug interaction trials: effect of rilpivirine on pharmacokinetics of coadministered drugs; conditions: No Effect = 1.00; for AUC(0-last) of coadministered drug, geometric mean ratio with/without EDURANT: footnote c
[2] = Drug interaction trials: effect of coadministered drugs on pharmacokinetics of dolutegravir; assay type: in vivo, human
Text: (§1) These recommendations are based on either drug interaction trials of individual components or predicted interactions due to the expected magnitude of interaction and potential for serious adverse events or loss of efficacy.

[3] = Pre-dose concentrations of DTG and RPV at Weeks 4, 24 and 48 or withdrawal in participants switching to DTG + RPV; assay type: in vivo, human
Experimental: (§2) First set of participants (DTG 50 mg) received DIG 50 mg+RPV 25 mg together once daily, with a meal, in an open-label fashion up to Week 52 during early switch phase. Second set of participants (RPV 25 mg) also received DTG 50 mg+RPV 25 mg together once daily, with a meal, in an open-label fashion up to Week 52 during early switch phase.
(§3) First set of participants (DTG 50 mg) received DTG 50 mg+RPV 25 mg together once daily, with a meal, in an open-label fashion up to Week 52 during early switch phase. Second set of participants (RPV 25 mg) also received DTG 50 mg+RPV 25 mg together once daily, with a meal, in an open-label fashion up to Week 52 during early switch phase.

[4] = Solubilities of rilpivirine hydrochloride in various aqueous media; assay type: physicochemical
[5] = Pre-dose concentrations of DTG and RPV at Weeks 2, 4 and 8 in the first 20 participants who switch from EFV or NVP to DTG + RPV; assay type: in vivo, human
Experimental: as §2, §3

[6] = human, in vivo
[7] = Established and other potentially significant drug interactions with JULUCA (effect on concentration); assay type: in vivo, human; conditions: concomitant drug with JULUCA; based on drug interaction trials or predicted interactions
Text: as §1

[8] = coadministered drug 2 h after dolutegravir 50 mg single dose
[9] = simultaneous administration (fasted), dolutegravir 50 mg single dose
[10] = simultaneous administration (fed), dolutegravir 50 mg single dose

## CCCc1nn(C)c2c(=O)[nH]c(-c3cc(S(=O)(=O)N4CCNCC4)ccc3OCC)nc12 [N-desmethyl-sildenafil]
[1]
  Cmax of coadministered drug, geometric mean ratio with/without EDURANT: 0.90
  AUC(0-last) of coadministered drug, geometric mean ratio with/without EDURANT: 0.92

## O=C([O-])/C=C/C(=O)[O-].[Fe+2] [Ferrous fumarate]
[2]; [8]
  Dolutegravir AUC, geometric mean ratio with/without coadministered drug: 0.95
  Dolutegravir Cmax, geometric mean ratio with/without coadministered drug: 0.99
  Dolutegravir Cτ or C24, geometric mean ratio with/without coadministered drug: 0.92
[2]; [9]
  Dolutegravir AUC, geometric mean ratio with/without coadministered drug: 0.46
  Dolutegravir Cmax, geometric mean ratio with/without coadministered drug: 0.43
  Dolutegravir Cτ or C24, geometric mean ratio with/without coadministered drug: 0.44
[2]; [10]
  Dolutegravir AUC, geometric mean ratio with/without coadministered drug: 0.98
  Dolutegravir Cmax, geometric mean ratio with/without coadministered drug: 1.03
  Dolutegravir Cτ or C24, geometric mean ratio with/without coadministered drug: 1.00

## CC(=O)N1CCN(c2ccc(OCC3COC(Cn4ccnc4)(c4ccc(Cl)cc4Cl)O3)cc2)CC1 (centres unmarked) [Ketoconazole]
[1]
  AUC of coadministered drug, geometric mean ratio with/without EDURANT: 0.76
  Cmax of coadministered drug, geometric mean ratio with/without EDURANT: 0.85
  Cmin of coadministered drug, geometric mean ratio with/without EDURANT: 0.34

## CO[C@H]1/C=C/O[C@@]2(C)Oc3c(C)c(O)c4c(O)c(c(/C=N/N5CCN(C)CC5)c(O)c4c3C2=O)NC(=O)/C(C)=C\C=C\[C@H](C)[C@H](O)[C@@H](C)[C@@H](O)[C@@H](C)[C@H](O)[C@@H]1C [25-desacetylrifampin]
[1]
  AUC of coadministered drug, geometric mean ratio with/without EDURANT: 0.91
  Cmax of coadministered drug, geometric mean ratio with/without EDURANT: 1.00

## CC(C)c1c(C(=O)Nc2ccc(O)cc2)c(-c2ccccc2)c(-c2ccc(F)cc2)n1CC[C@@H](O)C[C@@H](O)CC(=O)O [4-hydroxy-atorvastatin]
[1]
  AUC of coadministered drug, geometric mean ratio with/without EDURANT: 1.23
  Cmax of coadministered drug, geometric mean ratio with/without EDURANT: 1.28

## O=C([O-])[O-].[Ca+2] [Calcium carbonate]
[2]; [8]
  Dolutegravir AUC, geometric mean ratio with/without coadministered drug: 0.94
  Dolutegravir Cmax, geometric mean ratio with/without coadministered drug: 1.00
  Dolutegravir Cτ or C24, geometric mean ratio with/without coadministered drug: 0.90
[2]; [9]
  Dolutegravir AUC, geometric mean ratio with/without coadministered drug: 0.61
  Dolutegravir Cmax, geometric mean ratio with/without coadministered drug: 0.63
  Dolutegravir Cτ or C24, geometric mean ratio with/without coadministered drug: 0.61
[2]; [10]
  Dolutegravir AUC, geometric mean ratio with/without coadministered drug: 1.09
  Dolutegravir Cmax, geometric mean ratio with/without coadministered drug: 1.07
  Dolutegravir Cτ or C24, geometric mean ratio with/without coadministered drug: 1.08

## C[C@H]1O[C@@H](O[C@H]2[C@@H](O)C[C@H](O[C@H]3[C@@H](O)C[C@H](O[C@H]4CC[C@@]5(C)[C@H](CC[C@@H]6[C@@H]5C[C@@H](O)[C@]5(C)[C@@H](C7=CC(=O)OC7)CC[C@]65O)C4)O[C@@H]3C)O[C@@H]2C)C[C@H](O)[C@@H]1O [Digoxin]
[1]
  Cmax of coadministered drug, geometric mean ratio with/without EDURANT: 1.06
  AUC(0-last) of coadministered drug, geometric mean ratio with/without EDURANT: 0.98

## Cc1cc(/C=C/C#N)cc(C)c1Nc1ccnc(Nc2ccc(C#N)cc2)n1.Cl [rilpivirine hydrochloride, 4-[[4-[[4-[(E)-2-cyanoethenyl]-2,6-dimethylphenyl]amino]-2-pyrimidinyl]amino]benzonitrile hydrochloride]
[3]; Example 3 (Table 10), Week 4
  Pre-dose concentration, Mean ± Standard Deviation: 92.046 ± 138.2880 µg/L
[3]; Example 3 (Table 10), Week 24
  Pre-dose concentration, Mean ± Standard Deviation: 87.875 ± 39.1412 µg/L
[3]; Example 3 (Table 10), Week 48
  Pre-dose concentration, Mean ± Standard Deviation: 95.405 ± 48.2978 µg/L
[3]; Example 5 (Table 13), Week 4
  Pre-dose concentration, Mean ± Standard Deviation: 79.504 ± 38.2305 µg/L
[3]; Example 5 (Table 13), Week 24
  Pre-dose concentration, Mean ± Standard Deviation: 90.207 ± 46.3022 µg/L
[3]; Example 5 (Table 13), Week 48
  Pre-dose concentration, Mean ± Standard Deviation: 91.799 ± 47.1371 µg/L
[4]; 0.01N HCl, pH 2.0
  Descriptor (solubility): Practically insoluble (Practically insoluble or Insoluble: Parts of solvent required for 1 part of solute: greater than or equal to 10,000)
[4]; 0.01N HCl, pH 2.0, 20° C.
  Solubility: 0.003 g/100 mL
[4]; 0.1N HCl, pH 1.1
  Descriptor (solubility): Practically insoluble (Practically insoluble or Insoluble: Parts of solvent required for 1 part of solute: greater than or equal to 10,000)
[4]; 0.1N HCl, pH 1.1, 20° C.
  Solubility: <0.001 g/100 mL
[4]; 0.1N NaOH, pH 12.9
  Descriptor (solubility): Practically insoluble (Practically insoluble or Insoluble: Parts of solvent required for 1 part of solute: greater than or equal to 10,000)
[4]; 0.1N NaOH, pH 12.9, 20° C.
  Solubility: <0.001 g/100 mL
[4]; Borate-KCl, pH 8.9
  Descriptor (solubility): Practically insoluble (Practically insoluble or Insoluble: Parts of solvent required for 1 part of solute: greater than or equal to 10,000)
[4]; Borate-KCl, pH 8.9, 20° C.
  Solubility: <0.001 g/100 mL
[4]; Citrate-HCl, pH 2.0
  Descriptor (solubility): Practically insoluble (Practically insoluble or Insoluble: Parts of solvent required for 1 part of solute: greater than or equal to 10,000)
[4]; Citrate-HCl, pH 2.0, 20° C.
  Solubility: <0.001 g/100 mL
[4]; Citrate-NaOH, pH 5.0
  Descriptor (solubility): Practically insoluble (Practically insoluble or Insoluble: Parts of solvent required for 1 part of solute: greater than or equal to 10,000)
[4]; Citrate-NaOH, pH 5.0, 20° C.
  Solubility: <0.001 g/100 mL
[4]; Phosphate Buffer, pH 6.9
  Descriptor (solubility): Practically insoluble (Practically insoluble or Insoluble: Parts of solvent required for 1 part of solute: greater than or equal to 10,000)
[4]; Phosphate Buffer, pH 6.9, 20° C.
  Solubility: <0.001 g/100 mL
[4]; Phosphate-NaOH, pH 11.9
  Descriptor (solubility): Practically insoluble (Practically insoluble or Insoluble: Parts of solvent required for 1 part of solute: greater than or equal to 10,000)
[4]; Phosphate-NaOH, pH 11.9, 20° C.
  Solubility: <0.001 g/100 mL
[4]; Water, solution pH 2.2
  Descriptor (solubility): Practically insoluble (Practically insoluble or Insoluble: Parts of solvent required for 1 part of solute: greater than or equal to 10,000)
[4]; Water, solution pH 2.2, 20° C.
  Solubility: 0.001 g/100 mL
[4]; aqueous media (Table 16)
  Descriptor (solubility): practically insoluble
[5]; Example 3 (Table 10), Week 2
  Pre-dose concentration, Mean ± Standard Deviation: 65.360 ± 31.2965 µg/L
[5]; Example 3 (Table 10), Week 4
  Pre-dose concentration, Mean ± Standard Deviation: 67.374 ± 27.5663 µg/L
[5]; Example 3 (Table 10), Week 8
  Pre-dose concentration, Mean ± Standard Deviation: 77.416 ± 37.7129 µg/L
[5]; Example 5 (Table 13), Week 2
  Pre-dose concentration, Mean ± Standard Deviation: 57.342 ± 29.5436 µg/L
[5]; Example 5 (Table 13), Week 4
  Pre-dose concentration, Mean ± Standard Deviation: 78.338 ± 31.4825 µg/L
[5]; Example 5 (Table 13), Week 8
  Pre-dose concentration, Mean ± Standard Deviation: 79.652 ± 40.7546 µg/L

## COc1ccc2c(O[C@@H]3C[C@H]4C(=O)N[C@]5(C(=O)NS(=O)(=O)C6CC6)C[C@H]5/C=C\CCCCN(C)C(=O)[C@@H]4C3)cc(-c3nc(C(C)C)cs3)nc2c1C [Simeprevir]
[1]
  AUC of coadministered drug, geometric mean ratio with/without EDURANT: 1.06
  Cmax of coadministered drug, geometric mean ratio with/without EDURANT: 1.10
  Cmin of coadministered drug, geometric mean ratio with/without EDURANT: 0.96

## C#C[C@]1(O)CC[C@H]2[C@@H]3CCC4=CC(=O)CC[C@@H]4[C@H]3CC[C@@]21C [Norethindrone]
[6]
  AUC of coadministered drug, geometric mean ratio with/without EDURANT: 0.89
  Cmax of coadministered drug, geometric mean ratio with/without EDURANT: 0.94
[1]
  Cmin of coadministered drug, geometric mean ratio with/without EDURANT: 0.99

## CNC(=C[N+](=O)[O-])NCCSCc1csc(CN(C)C)n1 [Nizatidine]
[7]
  Effect on Concentration of Dolutegravir: ↔Dolutegravir
  Effect on Concentration of Rilpivirine: ↓Rilpivirine

## CCC1(c2ccccc2)C(=O)NC(=O)NC1=O [Phenobarbital]
[7]
  Effect on Concentration of Rilpivirine: ↓Rilpivirine

## CC(C)c1c(C(=O)Nc2ccccc2O)c(-c2ccccc2)c(-c2ccc(F)cc2)n1CCC(O)CC(O)CC(=O)O (centres unmarked) [2-hydroxy-atorvastatin]
[1]
  AUC of coadministered drug, geometric mean ratio with/without EDURANT: 1.39
  Cmax of coadministered drug, geometric mean ratio with/without EDURANT: 1.58
  Cmin of coadministered drug, geometric mean ratio with/without EDURANT: 1.32

## CN/C(=N/CCSCc1nc[nH]c1C)NC#N [Cimetidine]
[7]
  Effect on Concentration of Dolutegravir: ↔Dolutegravir
  Effect on Concentration of Rilpivirine: ↓Rilpivirine
